Data taken from patent US7211566B2 (Universite De Sherbrooke, priority 2003, dated 2007).
Square brackets hold non-standard residues; d marks the D form. Peptide text beside a SMILES is read from it. Oic = O=C(O)[C@@H]1C[C@@H]2CCCC[C@@H]2N1; d2Nal = N[C@H](Cc1ccc2ccccc2c1)C(=O)O; αMeF = C[C@](N)(Cc1ccccc1)C(=O)O; Orn = NCCC[C@H](N)C(=O)O

Test: Ex vivo stability in rat tissue extracts from liver, lung and kidney (HPLC)
Assay type: in vitro ADME
Conditions: Wistar, after 24 hours, read-out: parent remaining
Description: Liver, lung and kidneys were collected from Wistar rats and resuspended in nine volume of PBS. The tissues were homogenized for 3×15 sec. on ice with a Polytron homogenizer and were centrifuged at 3000 rpm for 15 min. at 4° C. The supernatant was collected and kept at −80° C. until used.
Stability studies were initiated by adding the peptide […] to 50–100 μl of either plasma, serum or extract (10–100 μM final concentration) and incubated for 10 min to 24 hours at 37° C. The reaction was stopped by the addition of ice-cold acetonitrile (75% final concentration) containing 10 μM Lys-desArg^9BK (which serves as an internal control). The samples were vortexed and centrifuged at 13000 rpm for 20 min at 4° C. in a microfuge. The clear supernatant was transferred to a 1 ml tube and the samples were evaporated to dryness by lyophilisation. Finally, the samples were resuspended in 50 μl of HPLC-grade water.
Quantitative analysis of the extracted compound and standard controls was carried out using an Agilent reverse-phase HPLC (model 1100) coupled to a 4.6×150 mm Zorbax 300SB-C18 column (5 μm particle size) and equipped with a diode array detector. […] The elution positions and quantification of compounds were determined by following the absorbance at 226 nm. […]

In the case of CC[C@H](C)[C@H](NC(=O)[C@@H](Cc1ccc2ccccc2c1)NC(=O)[C@H](CO)NC(=O)[C@](C)(Cc1ccccc1)NC(=O)CNC(=O)[C@@H]1CCCN1C(=O)[C@@H]1C[C@@H]2CCCC[C@@H]2N1C(=O)[C@H](CCCNC(=N)N)NC(=O)[C@H](CCCN)NC(C)=O)C(=O)O [compound c, Ac-Orn[Oic^2,(α-Me)Phe^5,D-βNal^7,Ile^8]desArg^9BK] (Ac-[Orn]R[Oic]PG[αMeF]S[d2Nal]I-OH), the remaining at 24 h is reported as greater than 75%.
